Reference: article PMC3971528, “Leishmania infantum EndoG Is an Endo/Exo-Nuclease Essential for Parasite Survival” (PLoS ONE, 2014)

Target: T1, LiEndoG (rLiEndoG) (Leishmania infantum, UniProt B0ZTD3)
T1 construct: gene endog; recombinant from pRSET-LiendoG in E. coli BL21(DE3) pLys
T1 sequence (B0ZTD3 1-510): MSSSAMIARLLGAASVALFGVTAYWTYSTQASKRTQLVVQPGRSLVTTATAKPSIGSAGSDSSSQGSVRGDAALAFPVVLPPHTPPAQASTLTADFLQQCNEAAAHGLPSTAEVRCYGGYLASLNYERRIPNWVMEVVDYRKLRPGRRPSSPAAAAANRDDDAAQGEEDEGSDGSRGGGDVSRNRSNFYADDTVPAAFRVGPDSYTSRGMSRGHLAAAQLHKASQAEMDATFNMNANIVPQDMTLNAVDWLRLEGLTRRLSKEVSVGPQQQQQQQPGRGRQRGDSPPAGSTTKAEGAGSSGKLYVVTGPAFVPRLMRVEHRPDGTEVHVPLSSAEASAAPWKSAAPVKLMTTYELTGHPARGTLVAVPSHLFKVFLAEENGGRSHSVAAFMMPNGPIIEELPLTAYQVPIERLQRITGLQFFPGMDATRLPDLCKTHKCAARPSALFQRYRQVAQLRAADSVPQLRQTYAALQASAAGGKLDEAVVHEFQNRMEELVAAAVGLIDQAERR
Assay: fluorescence nuclease assay, FAM/TAMRA double-stranded oligonucleotide probe
Format: biochemical
Settings: inhibitor; 30 pmol probe, 2.5 ng/mL LiEndoG, 40 min; increasing Lei49

Cc1cn([C@H]2C[C@H](OC(=O)CCC(=O)OCCOC(=O)[C@@H](N)C(C)C)[C@@H](COC(c3ccccc3)(c3ccccc3)c3ccccc3)O2)c(=O)[nH]c1=O [Lei49, 2-[(S)-2-Amino-3-methylbutanoyl-oxy]ethyl [(2R,3S,5R)-5-(thymin-1-yl)-2-(trityloximethyl)tetrahydrofuran-3-yl] succinate]
fluorescence nuclease assay, FAM/TAMRA double-stranded oligonucleotide probe: Inhibition of the nuclease activity of LiEndoG by Lei49.
